According to US9278958B2, “Anti-cancer compounds” (KATHOLIEKE UNIVERSITEIT LEUVEN, priority 2012, dated 2016):
Read-outs that look alike come from different tables or passages of the source.

Experiments:
[1] = test system: broad variety of tumor cell lines; test: Cytostatic assays, summary over the panel of cell lines (Tables 2-4); type: cell-based
Outline: (§1)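 Test compound was added to wells holding 5-7.5×10^4 cells. After line-specific growth periods of 48 h to 96 h at 37° C in a moist atmosphere with regulated CO2, the number of cells was recorded by Coulter counting.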

[2] = test system: 293T embryonic kidney cells; test: Cytostatic assay, 293T; type: cell-based; conditions: Homo sapiens, HEK-293T; Table 3
Outline: as §1

[3] = test system: Daudi, human B-lymphoma cells; test: Cytostatic assay, Daudi; type: cell-based; conditions: Table 2
Method: (§2) To each well of a 96-well microtiter plate were added 5-7.5×10^4 cells and a given amount of the test compound. The cells were allowed to proliferate for 48 h to 96 h (depending on the nature of the cell line) at 37° C. in a humidified CO2-controlled atmosphere. At the end of the incubation period, the cells were counted in a Coulter Counter (Coulter Electronics Ltd, Harpenden Herts, United Kingdom).

[4] = test system: HEL embryonic lung fibroblast cells; test: Cytostatic assay, HEL; type: cell-based; conditions: Homo sapiens, Table 3
Outline: as §1

[5] = test system: protein synthesis in Raji cells; test: Antimetabolic activity assay, [4,5-3H]leucine incorporation (protein synthesis), Raji; type: cell-based; conditions: Homo sapiens, incorporation into TCA-insoluble material
[6] = test system: PC3 (rega) prostate cancer cells; test: Cytostatic assay, PC3 (rega); type: cell-based; conditions: Table 4
Outline: as §1

MT-4 cells = test: Cytostatic assay, MT-4; type: cell-based; conditions: Homo sapiens, MT4; Table 2
Outline: as §1

[7] = test system: MCF-7 mammary carcinoma cells; test: Cytostatic assay, MCF-7; type: cell-based; conditions: Homo sapiens, MCF7; Table 3
Outline: as §1

[8] = test system: DNA synthesis in Raji cells; test: Antimetabolic activity assay, [CH3-3H]dThd incorporation (DNA synthesis), Raji; type: cell-based; conditions: Homo sapiens, incorporation into TCA-insoluble material
[9] = test system: LNCaP (UZ) prostate cancer cells; test: Cytostatic assay, LNCaP (UZ); type: cell-based; conditions: Homo sapiens, Table 4
Outline: as §1

[10] = test system: Raji, human B-lymphoma cells; test: Cytostatic assay, Raji; type: cell-based; conditions: Table 2
Outline: as §1

BPH-1 (UZ) = test: Cytostatic assay, BPH-1 (UZ); type: cell-based; conditions: Homo sapiens, Table 4
Outline: as §1

[11] = test system: RNA synthesis in Raji cells; test: Antimetabolic activity assay, [5-3H]uridine incorporation (RNA synthesis), Raji; type: cell-based; conditions: Homo sapiens, incorporation into TCA-insoluble material
Sup T1 cells = test: Cytostatic assay, Sup T1; type: cell-based; conditions: Homo sapiens, Table 2, read-out: Cytostatic activity (μM) Sup T 1
Outline: as §1

HUT-78 cells = test: Cytostatic assay, HUT-78; type: cell-based; conditions: Homo sapiens, HuT78; Table 2
Outline: as §1

[12] = test system: DNA synthesis in CEM cells; test: Antimetabolic activity assay, [CH3-3H]dThd incorporation (DNA synthesis), CEM; type: cell-based; conditions: Homo sapiens, CCRF-CEM, incorporation into TCA-insoluble material
Outline: (§3)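 37° C, 20 hrs, humidified CO2: 10^5 CEM cells + 1 μCi ^3H precursor + compound (5-fold dilution series). Harvest on glass fiber filters; count acid-insoluble ^3H.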

[13] = test system: HT29 colorectal carcinoma cells; test: Cytostatic assay, HT29; type: cell-based; conditions: Homo sapiens, HT-29; Table 3
Outline: as §1

[14] = test system: HeLa cervix carcinoma cells; test: Cytostatic assay, HeLa; type: cell-based, human; conditions: Homo sapiens; Table 3; read-out: Cytostatic activity (μM) Hela
Outline: as §1

[15] = test system: THP-1, human monocytic cells; test: Cytostatic assay, THP-1; type: cell-based; conditions: Table 2
Outline: as §1

[16] = test system: U937, human monocytic cells; test: Cytostatic assay, U937; type: cell-based; conditions: U-937, Table 2
Outline: as §1

Molt4/C8 cells = test: Cytostatic assay, Molt4/C8; type: cell-based; conditions: Table 2
Outline: as §1

[17] = test system: 22Rv1 (UZ) prostate cancer cells; test: Cytostatic assay, 22Rv1 (UZ); type: cell-based; conditions: Homo sapiens, Table 4
Outline: as §1

U87 glioma cells = test: Cytostatic assay, U87; type: cell-based; conditions: Homo sapiens, U-87 MG; Table 3
Outline: as §1

PLC/PRF/5 hepatoma cells = test: Cytostatic assay, PLC/PRF/5; type: cell-based; conditions: Homo sapiens, Table 4
Outline: as §1

Huh-7 hepatoma cells = test: Cytostatic assay, Huh-7; type: cell-based; conditions: Homo sapiens, Table 4
Outline: as §1

[18] = test system: U87 CD4+/CXCR4+/CCR5+ glioma cells; test: Cytostatic assay, U87 CD4+/CXCR4+/CCR5+; type: cell-based; conditions: Homo sapiens, Glioma cell; Table 3
Method: as §2

C8166 cells = test: Cytostatic assay, C8166; type: cell-based; conditions: Homo sapiens, Table 2
Outline: as §1

MT-2 cells = test: Cytostatic assay, MT-2; type: cell-based; conditions: Homo sapiens, MT2; Table 2
Outline: as §1

[19] = test system: PNT1A (UZ) prostate cells; test: Cytostatic assay, PNT1A (UZ); type: cell-based; conditions: Homo sapiens, Table 4
Outline: as §1

[20] = test system: HL60, human leukemia cells; test: Cytostatic assay, HL-60; type: cell-based; conditions: Table 2
Outline: as §1

CEM cells = test: Cytostatic assay, CEM; type: cell-based; conditions: Homo sapiens, CCRF-CEM
Outline: as §1

[21] = test system: OST TK- osteosarcoma cells; test: Cytostatic assay, OST TK-; type: cell-based; conditions: Homo sapiens; Table 3
Outline: as §1

L1210 cells = test: Cytostatic assay, L1210; type: cell-based; conditions: Mus musculus, Table 2
Outline: as §1

HepG2C3A hepatoma cells = test: Cytostatic assay, HepG2C3A; type: cell-based; conditions: Homo sapiens, HepG2/C3A; Table 4
Outline: as §1

[22] = test system: HOS CD4+ osteosarcoma cells; test: Cytostatic assay, HOS CD4+; type: cell-based; conditions: Homo sapiens; Table 3
Method: as §2

[23] = test system: PC-3 (UZ) prostate cancer cells; test: Cytostatic assay, PC-3 (UZ); type: cell-based; conditions: Table 4
Outline: as §1

[24] = test system: RNA synthesis in CEM cells; test: Antimetabolic activity assay, [5-3H]uridine incorporation (RNA synthesis), CEM; type: cell-based; conditions: Homo sapiens, CCRF-CEM, incorporation into TCA-insoluble material
Outline: as §3

[25] = test system: DU145 (UZ) prostate cancer cells; test: Cytostatic assay, DU145 (UZ); type: cell-based; conditions: Homo sapiens, DU-145; Table 4
Outline: as §1

[26] = test system: FM3A mammary carcinoma cells; test: Cytostatic assay, FM3A; type: cell-based, murine; conditions: Mus musculus, Table 3
Outline: as §1

[27] = test system: BAEC aortic endothelial cells; test: Cytostatic assay, BAEC; type: cell-based, bovine; conditions: Bos taurus, Table 3
Outline: as §1

[28] = test system: Caki-1 kidney carcinoma cells; test: Cytostatic assay, Caki-1; type: cell-based; conditions: Homo sapiens, Table 3
Outline: as §1

[29] = test system: Caki-2 kidney carcinoma cells; test: Cytostatic assay, Caki-2; type: cell-based; conditions: Homo sapiens, Table 3
Outline: as §1

[30] = test system: protein synthesis in CEM cells; test: Antimetabolic activity assay, [4,5-3H]leucine incorporation (protein synthesis), CEM; type: cell-based; conditions: Homo sapiens, CCRF-CEM, incorporation into TCA-insoluble material
Outline: as §3

IC50 ([1]; Homo sapiens, HuT78, range for the seven compounds, MT-4 and HUT-78 cells, read-out: IC50 range, cytostatic activity against MT-4 and HUT-78 cells): 8.5 to 60 µM | IC50 ([1]; range for the seven compounds against the 5 tumor cell lines, read-out: IC50 range, cytostatic activity against CEM, Molt4/C8, Sup T1, MT-2 and C8166 cells): 0.22 to 3.4 µM | IC50 [3]: 61 ± 1.4 µM | IC50 [5]: > 100 µM | IC50 [6]: 0.57 ± 0.3 µM | IC50 [7]: 79 ± 30 µM | IC50 [8]: > 100 µM | IC50 [9]: 0.35 ± 0.067 µM | IC50 [10]: 93 ± 11 µM | IC50 (BPH-1 (UZ)): > 100 µM | IC50 [11]: > 100 µM | IC50 (Sup T1 cells): 0.95 ± 0.64 µM | IC50 (HUT-78 cells): 39 ± 27 µM | IC50 [12]: 3.1 ± 0.3 µM | IC50 [13]: > 100 µM | IC50 [14]: 105 ± 68 µM | IC50 [15]: 32 ± 4.9 µM | IC50 [16]: 40 ± 2.8 µM | IC50 (Molt4/C8 cells): 0.27 ± 0.27 µM | IC50 [17]: 21 ± 17 µM | IC50 (U87 glioma cells): > 100 µM | IC50 (PLC/PRF/5 hepatoma cells): 62 ± 21 µM | IC50 (Huh-7 hepatoma cells): 4.6 ± 0.28 µM | IC50 [18]: 48 ± 6.4 µM | IC50 (C8166 cells): 1.6 ± 0.95 µM | IC50 (MT-2 cells): 1.8 ± 0.64 µM | IC50 [19]: > 100 µM | IC50 [20]: 4.9 ± 5.4 µM | IC50 (CEM cells; Table 1a, read-out: IC50 μM (CEM)): 1.5 µM | IC50 (CEM cells; Table 2, read-out: Cytostatic activity (μM) CEM): 1.5 ± 0.28 µM | IC50 [21]: 10 ± 6.9 µM | IC50 (L1210 cells): 248 ± 40 µM | IC50 (HepG2C3A hepatoma cells): 13 ± 0.71 µM | IC50 [22]: 67 ± 6.4 µM | IC50 [23]: 1.3 ± 0.071 µM | IC50 [24]: 1 ± 0.5 µM | IC50 [25]: 14 ± 1.2 µM | IC50 [26]: 49 ± 9.9 µM | IC50 [27]: 44 ± 22 µM | IC50 [28]: 4.5 ± 3.8 µM | IC50 [29]: ≥ 200 µM | IC50 [30]: 1.9 ± 1.6 µM
Compound: COC(=O)c1cc(CCc2ccc(OC)cc2C)sc1N [TR583, 2-Amino-5-[2-(4-methoxy-2-methyl-phenyl)-ethyl]-thiophene-3-carboxylic acid methyl ester]
IC50 [2]: 84 ± 23 µM | IC50 [4]: 87 ± 19 µM | IC50 (MT-4 cells): 60 ± 0.71 µM
